Assay results taken from ChEMBL document CHEMBL5247583, “Synthesis and evaluation of small molecule inhibitors of LSD1 for use against MYCN-expressing neuroblastoma” (Eur J Med Chem, 2022).
The source made the active and inactive calls. No cut-off for these calls is given here.

Key:
IMR-32 [1] = test: Cytotoxicity against human IMR-32 cells assessed as lethal concentration measured after 24 hrs by cell titer glo assay; assay type: functional; details: read-out: LC50 (the source's name)
IMR-32 [2] = test: Cytotoxicity against human IMR-32 cells assessed as combination index measured after 24 hrs by cell titer glo assay; assay type: functional
CHP-134 [3] = test: Cytotoxicity against human CHP-134 cells assessed as lethal concentration measured after 24 hrs by cell titer glo assay; assay type: functional; details: read-out: LC50 (the source's name)
IMR-32 [4] = test: Upregulation of LSD1 expression level in human IMR-32 cells by DAPI staining based analysis; assay type: functional, cell-based
CHP-134 [5] = test: Cytotoxicity against human CHP-134 cells assessed as lethal concentration measured after 24 hrs in presence of bortezomib by cell titer glo assay; assay type: functional; details: read-out: LC50 (the source's name)
[6] = molecular target: Spermine oxidase (Homo sapiens) (UniProt Q9NWM0); test: Inhibition of SMOX (unknown origin) at 50 uM using spermine as substrate preincubated for 1 hr followed by substrate addition and measured after 20 mins by luminometer analysis relative to control; details: time 80.0 min
Spermine oxidase (Homo sapiens), sequence (Q9NWM0 whole entry): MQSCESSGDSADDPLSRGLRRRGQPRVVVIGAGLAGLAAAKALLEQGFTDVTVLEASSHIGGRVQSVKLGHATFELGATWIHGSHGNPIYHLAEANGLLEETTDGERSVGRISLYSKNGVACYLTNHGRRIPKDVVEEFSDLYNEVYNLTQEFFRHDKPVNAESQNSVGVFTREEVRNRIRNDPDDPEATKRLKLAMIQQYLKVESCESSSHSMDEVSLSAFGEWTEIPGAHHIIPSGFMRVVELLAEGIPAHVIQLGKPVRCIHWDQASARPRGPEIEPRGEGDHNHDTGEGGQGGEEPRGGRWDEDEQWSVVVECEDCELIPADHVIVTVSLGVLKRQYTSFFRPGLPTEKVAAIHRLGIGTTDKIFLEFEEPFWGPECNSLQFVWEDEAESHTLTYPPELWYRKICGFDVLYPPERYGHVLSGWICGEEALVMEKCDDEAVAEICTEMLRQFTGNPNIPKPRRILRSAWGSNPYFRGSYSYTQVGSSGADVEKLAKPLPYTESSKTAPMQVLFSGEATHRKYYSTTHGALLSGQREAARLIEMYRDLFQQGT

CHP-134 [7] = test: Cytotoxicity against human CHP-134 cells measured after 24 hrs in presence of bortezomib by cell titer glo assay; assay type: functional, cell-based
IMR-32 [8] = test: Cytotoxicity against human IMR-32 cells assessed lethal concentration measured after 72 hrs by cell titer glo assay; assay type: functional; details: read-out: LC50 (the source's name)
IMR-32 [9] = test: Cytotoxicity against human IMR-32 cells assessed as lethal concentration measured after 24 hrs in presence of bortezomib by cell titer glo assay; assay type: functional; details: read-out: LC50 (the source's name)
CHP-134 [10] = test: Cytotoxicity against human CHP-134 cells assessed lethal concentration measured after 72 hrs by cell titer glo assay; assay type: functional; details: read-out: LC50 (the source's name)
[11] = molecular target: T1, MAO-A (Amine oxidase [flavin-containing] A) (Homo sapiens, UniProt P21397); test: Inhibition of recombinant MAO-A (unknown origin) at 1 uM using luciferin as substrate preincubated for 1 hr followed by substrate addition measured after 20 min by microplate reader analysis relative to control; details: probe luciferin, time 80 min
T1 sequence (P21397 whole entry): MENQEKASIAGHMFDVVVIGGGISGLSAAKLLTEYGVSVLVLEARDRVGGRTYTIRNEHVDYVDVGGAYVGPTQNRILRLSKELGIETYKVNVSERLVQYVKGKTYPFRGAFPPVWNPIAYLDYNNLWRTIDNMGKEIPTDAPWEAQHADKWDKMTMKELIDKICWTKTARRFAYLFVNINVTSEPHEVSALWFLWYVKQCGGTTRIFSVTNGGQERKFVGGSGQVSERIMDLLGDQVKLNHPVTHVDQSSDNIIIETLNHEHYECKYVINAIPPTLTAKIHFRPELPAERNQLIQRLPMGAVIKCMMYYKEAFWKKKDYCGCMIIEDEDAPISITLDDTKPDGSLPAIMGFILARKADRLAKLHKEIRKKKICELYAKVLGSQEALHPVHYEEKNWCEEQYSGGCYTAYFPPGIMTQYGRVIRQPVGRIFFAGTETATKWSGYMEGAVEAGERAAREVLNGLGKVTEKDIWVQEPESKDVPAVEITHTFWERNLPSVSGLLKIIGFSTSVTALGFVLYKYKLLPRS

CC(C)C[C@H](NC(=O)[C@H](Cc1ccccc1)NC(=O)c1cnccn1)B(O)O [BORTEZOMIB]
CC50 (IMR-32 [1]): 19 nM | CI (IMR-32 [2]): 0.37 | CC50 (CHP-134 [3]): 106 nM

O=S(=O)(Nc1ccc(Br)cc1-c1nnn[nH]1)c1ccc(-c2ccc(Cl)cc2)cc1
Activity (IMR-32 [4]): Active | CC50 (CHP-134 [5]): 60 nM | inhibition [6]: 12% | Activity (CHP-134 [7]): Active | CC50 (IMR-32 [8]): 3100 nM | CC50 (IMR-32 [9]): 7 nM | CC50 (CHP-134 [10]): 11600 nM

COc1ccc(C2=C(c3ccc(C#N)c(F)c3)N=C(N3CCC(N)CC3)N(C)C2)cc1F
CC50 (CHP-134 [5]): 16 nM | CC50 (IMR-32 [9]): 8.4 nM

C#CCN(C)CCCOc1ccc(Cl)cc1Cl [CLORGILINE]
inhibition at 20 min, 1 µM [11]: 92%
